Laboratory results: paper PMC3409642 (Pharmaceutical research, 2012)
Where two headings read alike, the source gives them in different places.

How the values were obtained:
[1] = target: T1, UGT1A9 (Homo sapiens, UniProt O60656); details: for Log (CLint) (Actual): recombinant enzyme
T1 sequence (O60656 26-530): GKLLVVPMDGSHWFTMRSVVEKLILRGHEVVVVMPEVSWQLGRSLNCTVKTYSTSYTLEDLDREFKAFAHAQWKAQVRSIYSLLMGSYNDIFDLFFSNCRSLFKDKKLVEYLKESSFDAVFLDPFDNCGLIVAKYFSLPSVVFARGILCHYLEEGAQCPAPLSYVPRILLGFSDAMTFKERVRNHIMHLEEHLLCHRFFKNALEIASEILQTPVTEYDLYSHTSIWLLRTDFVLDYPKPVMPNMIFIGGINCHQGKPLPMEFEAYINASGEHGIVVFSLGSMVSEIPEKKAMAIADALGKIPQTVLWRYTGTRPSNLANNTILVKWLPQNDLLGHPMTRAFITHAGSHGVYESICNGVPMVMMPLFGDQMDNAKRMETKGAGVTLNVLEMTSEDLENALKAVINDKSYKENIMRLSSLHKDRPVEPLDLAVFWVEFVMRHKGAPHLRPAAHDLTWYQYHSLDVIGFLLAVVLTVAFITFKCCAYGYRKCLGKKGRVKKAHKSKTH

[2] = target: T1, UGT1A9; assay: in vitro
[3] = target: T1, UGT1A9; assay: Kinetic profiling of glucuronidation by expressed human UGT1A9; details: for Log (CLint) (Actual): log of experimental CLint (μl/mg/min); for Vmax: pH 7.4
[4] = substrate: C=CCc1ccc(O)c(OC)c1; assay: not read; details: pH 7.4; 37.0 °C
[5] = substrate: CN(C)CCc1c[nH]c2cccc(O)c12; assay: not read; details: pH 7.4; 37.0 °C
[6] = substrate: COC(=O)c1ccc(O)cc1; assay: not read; details: pH 7.4; 37.0 °C
[7] = substrate: Cc1ccc2oc(=O)cc(O)c2c1; assay: not read; details: pH 7.4; 37.0 °C
[8] = substrate: Oc1ccc(-c2ccccc2)cc1; assay: not read; details: pH 7.4; 37.0 °C

CCC(C)c1ccc(O)cc1 (stereo not drawn) [compound 127, 4-sec-Butylphenol]
CLint (Vmax/Km) ([1]; human, pH 7.4): 37 µL/min/mg
Km ([2]; pH 7.4, Km): 87.5 µM
Log (CLint) (Actual) [3]: 1.57

COc1cc(/C=C/C(=O)O)ccc1O [compound 95, Ferulic Acid]
CLint (Vmax/Km) [1]: 0.4 µL/min/mg
Log (CLint) (Actual) ([1]; human): 0.30
Km ([1]; pH 7.4): 884 µM
Vmax [3]: 372 pmol/mg/min

CC(C)c1ccc(O)cc1 [compound 117, 4-Isopropylphenol]
Km ([2]; pH 7.4): 36.4 µM
Log (CLint) (Actual) [3]: 1.78

O=c1cc(-c2ccccc2)oc2cc(O)c(O)c(O)c12 [compound 51, Baicalein]
Log (CLint) (Actual) ([1]; human, pH 7.4): 3.88
Km ([2]; pH 7.4, Km): 0.7 µM

CCCCc1ccc(O)cc1 [compound 110, 4-n-Butylphenol]
Log (CLint) (Actual) ([1]; human, pH 7.4): 1.18
Km ([2]; pH 7.4, Km): 43.1 µM

O=c1c(-c2ccc(O)cc2)coc2cc(O)cc(O)c12 [compound 105, Genistein]
CLint (Vmax/Km) ([1]; human, pH 7.4): 617 µL/min/mg
Km ([2]; pH 7.4): 2.09 µM
Log (CLint) (Actual) [3]: 2.79

Oc1cccc2ccccc12 [compound 21, Naphthol]
CLint (Vmax/Km) ([1]; human, pH 7.4): 288 µL/min/mg
Log (CLint) (Actual) ([1]; human, pH 7.4): 2.46
Vmax [3]: 72.1 pmol/mg/min

Cc1cc(O)c2c(c1)C(=O)c1cc(O)cc(O)c1C2=O [compound 18, Emodin]
CLint (Vmax/Km) ([1]; human, pH 7.4): 1020 µL/min/mg
Log (CLint) (Actual) ([1]; human, pH 7.4): 3.01
Km ([2]; pH 7.4, Km): 2.87 µM

O=c1c(O)c(-c2ccccc2)oc2cc(O)cc(O)c12 [85.a, Galangin]
Km ([2]; pH 7.4, Km): 0.68 µM
Log (CLint) (Actual) [3]: 4.04
Log (CLint) (Actual) ([3]; listed as 85.b): 3.68

C[C@]12CC[C@@H]3c4ccc(O)cc4CC[C@H]3[C@@H]1CC[C@@H]2O [estradiol, reference compound]
glucuronide metabolite formation on incubation with UGT1A9 (non-substrate) [1]: no metabolite can be detected

B1: human UGT1A9 (Homo sapiens) (protein)
chain: GKLLVVPMDGSHWFTMRSVVEKLILRGHEVVVVMPEVSWQLGRSLNCTVKTYSTSYTLEDLDREFKAFAHAQWKAQVRSIYSLLMGSYNDIFDLFFSNCRSLFKDKKLVEYLKESSFDAVFLDPFDNCGLIVAKYFSLPSVVFARGILCHYLEEGAQCPAPLSYVPRILLGFSDAMTFKERVRNHIMHLEEHLLCHRFFKNALEIASEILQTPVTEYDLYSHTSIWLLRTDFVLDYPKPVMPNMIFIGGINCHQGKPLPMEFEAYINASGEHGIVVFSLGSMVSEIPEKKAMAIADALGKIPQTVLWRYTGTRPSNLANNTILVKWLPQNDLLGHPMTRAFITHAGSHGVYESICNGVPMVMMPLFGDQMDNAKRMETKGAGVTLNVLEMTSEDLENALKAVINDKSYKENIMRLSSLHKDRPVEPLDLAVFWVEFVMRHKGAPHLRPAAHDLTWYQYHSLDVIGFLLAVVLTVAFITFKCCAYGYRKCLGKKGRVKKAHKSKTH
Km [4]: 25 µM
Vmax [4]: 0.001 µmol/min/mg
Vmax/Km [4]: 40 µL/min/mg
Km [5]: 748 µM
Vmax [5]: 0.00598 µmol/min/mg
Vmax/Km [5]: 8 µL/min/mg
Km [6]: 101 µM
Km [7]: 57.8 µM
Vmax [7]: 0.000225 µmol/min/mg
Vmax/Km [7]: 4 µL/min/mg
Km [8]: 56.2 µM
Vmax [8]: 0.00124 µmol/min/mg
Vmax/Km [8]: 22 µL/min/mg
